# According to article PMC6536897, “Phosphorylation of Glutamine Synthetase on Threonine 301 Contributes to Its Inactivation During Epilepsy” (Frontiers in Molecular Neuroscience, 2019):
# How the values were obtained:
# [1] = biological target: T1, Glutamine synthetase (GS) (Mus musculus, UniProt P15105); test: thermal shift (SyproOrange differential scanning fluorimetry); type: binding; conditions: varying MgCl2 and ATP; HEPES pH 7.5, 300 mM NaCl, 10% glycerol, 500 μM TCEP
# T1 construct: gene Glul; pET-24a(+) plasmid pNG189, codon optimised; E. coli BL21(DE3); HisTrap and Superdex 200; homomeric decamer
# [2] = biological target: T2, Glutamine synthetase (GS) (Mus musculus, UniProt P15105, T301E); test: gamma-glutamyl hydroxamate assay, absorbance […] nm; type: biochemical
# T2 construct: gene Glul; pET-24a(+) plasmid pNG189, codon optimised; E. coli BL21(DE3); HisTrap and Superdex 200; homomeric decamer
# [3] = biological target: T1, Glutamine synthetase (GS); test: gamma-glutamyl hydroxamate assay, absorbance […] nm; type: biochemical
# [4] = biological target: T3, Glutamine synthetase (GS) (Mus musculus, UniProt P15105, T301V); test: gamma-glutamyl hydroxamate assay, absorbance […] nm; type: biochemical
# T3 construct: gene Glul; pET-24a(+) plasmid pNG189, codon optimised; E. coli BL21(DE3); HisTrap and Superdex 200; homomeric decamer
# [5] = biological target: T4, Glutamine synthetase (GS) (Mus musculus, UniProt P15105, T301A); test: gamma-glutamyl hydroxamate assay, absorbance […] nm; type: biochemical
# T4 construct: gene Glul; pET-24a(+) plasmid pNG189, codon optimised; E. coli BL21(DE3); HisTrap and Superdex 200; homomeric decamer
# purified protein = substrate: N[C@@H](CCC(=O)O)C(=O)O; test: purified protein; type: biochemical, Mus musculus; conditions: unphosphorylated GS (PKA + PKI), 20 mM ATP, 20 mM hydroxylamine, 20 mM MgCl2, imidazole pH 7.4, room temperature
# T2 sequence (P15105 2-373 T301E): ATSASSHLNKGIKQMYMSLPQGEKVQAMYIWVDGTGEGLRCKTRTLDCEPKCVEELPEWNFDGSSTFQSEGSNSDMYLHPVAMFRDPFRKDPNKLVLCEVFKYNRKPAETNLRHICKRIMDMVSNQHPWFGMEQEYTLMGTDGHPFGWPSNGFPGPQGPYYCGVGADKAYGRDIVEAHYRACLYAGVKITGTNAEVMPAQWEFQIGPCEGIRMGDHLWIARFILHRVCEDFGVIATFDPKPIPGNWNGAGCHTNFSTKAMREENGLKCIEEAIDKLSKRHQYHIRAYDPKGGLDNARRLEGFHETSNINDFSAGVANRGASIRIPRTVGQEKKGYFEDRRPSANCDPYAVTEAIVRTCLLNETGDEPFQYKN
# T4 sequence (P15105 2-373 T301A): as the sequence (P15105 2-373 T301E) above, with E300A counted along it
# T3 sequence (P15105 2-373 T301V): as the sequence (P15105 2-373 T301E) above, with E300V counted along it
molecule,measurement,setting,value
Nc1ncnc2c1ncn2[C@@H]1O[C@H](COP(=O)(O)OP(=O)(O)OP(=O)(O)O)[C@@H](O)[C@H]1O [ATP],Tm,[1],incubation with MgATP increased their melting temperatures to similar extents
CS(=N)(=O)CC[C@H](N)C(=O)O (stereo partly drawn) [methionine sulfoximine],IC50,[2],> 100 mM
same,IC50,[3],0.182 ± 0.014 mM
same,IC50,[4],7.6 ± 0.5 mM
same,IC50,[5],> 100 mM
"Glutamine synthetase (GS) (Mus musculus) (protein, pET-24a(+) plasmid pNG189, codon optimised; E. coli BL21(DE3); HisTrap and Superdex 200; homomeric decamer) ATSASSHLNKGIKQMYMSLPQGEKVQAMYIWVDGTGEGLRCKTRTLDCEPKCVEELPEWNFDGSSTFQSEGSNSDMYLHPVAMFRDPFRKDPNKLVLCEVFKYNRKPAETNLRHICKRIMDMVSNQHPWFGMEQEYTLMGTDGHPFGWPSNGFPGPQGPYYCGVGADKAYGRDIVEAHYRACLYAGVKITGTNAEVMPAQWEFQIGPCEGIRMGDHLWIARFILHRVCEDFGVIATFDPKPIPGNWNGAGCHTNFSTKAMREENGLKCIEEAIDKLSKRHQYHIRAYDPKGGLDNARRLTGFHETSNINDFSAGVANRGASIRIPRTVGQEKKGYFEDRRPSANCDPYAVTEAIVRTCLLNETGDEPFQYKN",Km,purified protein,21 ± 1 mM
